Legend:
[1] = singlet oxygen efficiency test, reference rose bengal; format: physicochemical
[2] = absorption spectrum (maximum absorption wavelength, molar extinction coefficient); format: physicochemical

Compound | singlet oxygen yield [1] [%] | maximum absorption wavelength [2] [nm] | molar extinction coefficient [2]
CCCNc1c2c3c4c(c(OC)c(=O)c5c(NCCC)cc(OC)c(c6c(OC)cc(O)c(c1=O)c63)c54)C(C(C)=O)C(C)=C2 (stereo not drawn) [HB-33d] | 32 | 620 | 32,500 M^−1cm^−1
COc1c2c3c4c(c(NCC[N+]56CC[N+](C)(CC5)CC6)c(=O)c5c(NCC[N+]67CC[N+](C)(CC6)CC7)cc(OC)c(c6c(OC)cc(O)c(c1=O)c63)c54)C=C(C)C2C(C)=O (stereo not drawn) [HB-41c] | 35 | 621 | 33,500 M^−1cm^−1
COCCOCCOCCOCCOCCOCCOCCOCCOCCOCCOCCOCCOC(=O)CCCNc1c2c3c4c(c(OC)c(=O)c5c(O)cc(OC)c(c6c(OC)cc(NCCCC(=O)OCCOCCOCCOCCOCCOCCOCCOCCOCCOCCOCCOCCOC)c(c1=O)c63)c54)C(C(C)=O)C(C)=C2 (stereo not drawn) [HB-8c-PEG12] | 36 | 628 | 33,000 M^−1cm^−1
COc1c2c3c4c(c(NCCCC(=O)NCCCCCC[N+](C)(C)C)c(=O)c5c(NCCCC(=O)NCCCCCC[N+](C)(C)C)cc(OC)c(c6c(OC)cc(O)c(c1=O)c63)c54)C=C(C)C2 [HC-8c-NH—C6-N^+] | 36 | 634 | 32,000 M^−1cm^−1
COc1c2c3c4c(c(NCCOC(=O)N5CC(=O)NC(=O)C5)c(=O)c5c(NCCOC(=O)N6CC(=O)NC(=O)C6)cc(OC)c(c6c(OC)cc(O)c(c1=O)c63)c54)C=C(C)C2C(C)=O (stereo not drawn) [HB-40c] | 40 | 632 | 34,000 M^−1cm^−1
COc1c(NCCCC(=O)NCCCCS(=O)(=O)O)c2c(=O)cc(OC)c3c4c(OC)cc(=O)c5c(O)c(NCCCC(=O)NCCCCS(=O)(=O)O)c6c(c(c1CC(C)=C6)c23)c54 [HC-8b-NH—C4-SO3H] | 33 | 624 | 31,500 M^−1cm^−1
COc1c2c3c4c(c(NCCCC(=O)NCCCC[N+](C)(C)C)c(=O)c5c(O)cc(OC)c(c6c(OC)cc(NCCCC(=O)NCCCC[N+](C)(C)C)c(c1=O)c63)c54)C=C(C)C2 [HC-8d-NH—C4-N^+] | 33 | 624 | 30,500 M^−1cm^−1
COc1c(O)c2c(=O)cc(OC)c3c4c(OC)cc(=O)c5c(NCc6cccc[n+]6CCCC(=O)O)c(NCc6cccc[n+]6CCCC(=O)O)c6c(c(c1C(C(C)=O)C(C)=C6)c23)c54 (stereo not drawn) [HB-38a-N—COOH] | 20 | 620 | 22,000 M^−1cm^−1
COCCOCCOCCOCCOC(=O)C1CCC(CNc2c(O)c3c(=O)cc(OC)c4c5c(OC)cc(=O)c6c(NCC7CCC(C(=O)OCCOCCOCCOCCOC)CC7)c(OC)c7c(c(c2C=C(C)C7)c34)c65)CC1 (stereo not drawn) [HC-13b-PEG4] | 32 | 624 | 30,000 M^−1cm^−1
COc1c(NCCO)c2c(=O)cc(OC)c3c4c(OC)cc(=O)c5c(O)c(NCCO)c6c(c(c1CC(C)=C6)c23)c54 [HC-2b] | 33 | 624 | 27.500 M⁻¹ cm⁻¹
CCNc1c(O)c2c(=O)cc(OC)c3c4c(OC)cc(=O)c5c(NC6CCCC6)c(OC)c6c(c(c1C=C(C)C6C(C)=O)c23)c54 (stereo not drawn) [HB-44b] | 18 | 621 | 21,000 M^−1cm^−1
COc1c2c3c4c(c(NCCCC(=O)OCCCCCC[N+](C)(C)C)c(=O)c5c(NCCCC(=O)OCCCCCC[N+](C)(C)C)cc(OC)c(c6c(OC)cc(O)c(c1=O)c63)c54)C=C(C)C2 [HC-8c-C6-N^+] | 35 | 632 | 32,500 M^−1cm^−1
COCCOCCOCCOCCOCCOCCOCCOCCOCCOCCOCCOCCOCCC(=O)OC1CCC(Nc2c3c4c5c(c(OC)c(=O)c6c(O)cc(OC)c(c7c(OC)cc(NC8CCC(OC(=O)CCOCCOCCOCCOCCOCCOCCOCCOCCOCCOCCOCCOCCOC)C8)c(c2=O)c74)c65)C(C(C)=O)C(C)=C3)C1 (stereo not drawn) [HB-20c-PEG12] | 34 | 632 | 32,500 M^−1cm^−1
CCNc1c(NC2CCCC2)c2c(=O)c(SCCO)c(OC)c3c4c(OC)cc(=O)c5c(O)c(OC)c6c(c(c1C=C(C)C6C(C)=O)c23)c54 (stereo not drawn) [HB-S-44a] | 20 | 628 | 21,500 M^−1cm^−1
COCCOCCOCCOCCOCCOCCOCCC(=O)N1CCC(CNc2c(O)c3c(=O)cc(OC)c4c5c(OC)cc(=O)c6c(NCC7CCN(C(=O)CCOCCOCCOCCOCCOCCOCCOC)CC7)c(OC)c7c(c(c2C=C(C)C7C(C)=O)c34)c65)CC1 (stereo not drawn) [HB-31b-PEG6] | 38 | 622 | 31,000 M^−1cm^−1
COc1c2c3c4c(c(NCC5CCC(C(=O)NCCCCS(=O)(=O)O)CC5)c(=O)c5c(O)cc(OC)c(c6c(OC)cc(NCC7CCC(C(=O)NCCCCS(=O)(=O)O)CC7)c(c1=O)c63)c54)C=C(C)C2 (stereo not drawn) [HC-13d-C4-SO3H] | 30 | 624 | 31,000 M^−1cm^−1

Compound | singlet oxygen yield [1] [%] | maximum absorption wavelength [2] [nm] | molar extinction coefficient [2]
COc1c2c3c4c(c(NCCCCS(=O)(=O)O)c(=O)c5c(O)cc(OC)c(c6c(OC)cc(NCCCCS(=O)(=O)O)c(c1=O)c63)c54)C=C(C)C2C(C)=O (stereo not drawn) [HB-11d-C4-SO3H] | 32 | 626 | 30,500 M^−1cm^−1
COCCOCCNC(=O)CCNc1c(NCCC(=O)NCCOCCOC)c2c(=O)cc(OC)c3c4c(OC)cc(=O)c5c(O)c(OC)c6c(c(c1C=C(C)C6C(C)=O)c23)c54 (stereo not drawn) [HB-10a-NH-PEG1] | 30 | 621 | 31,500 M^−1cm^−1
COCCOCCC(=O)N1CCC(CNc2c(NCC3CCN(C(=O)CCOCCOC)CC3)c3c(=O)c(Br)c(OC)c4c5c(OC)cc(=O)c6c(O)c(OC)c7c(c(c2C=C(C)C7C(C)=O)c34)c65)CC1 (stereo not drawn) [HB-31a-Br-PEG1] | 33 | 624 | 32,000 M^−1cm^−1
COc1c2c3c4c(c(NC5CCCC(C(=O)O)C5)c(=O)c5c(O)cc(OC)c(c6c(OC)cc(NC7CCCC(C(=O)O)C7)c(c1=O)c63)c54)C=C(C)C2C(C)=O (stereo not drawn) [HB-15d] | 24 | 623 | 27,000 M^−1cm^−1
COCCOCCC(=O)OCCOCCNc1c(NCCCC(=O)O)c2c(=O)cc(OC)c3c4c(OC)cc(=O)c5c(O)c(OC)c6c(c(c1C=C(C)C6C(C)=O)c23)c54 (stereo not drawn) [HB-48a-PEG1] | 32 | 628 | 31,500 M^−1cm^−1
COCCOCCOCCOCCOCCOCCOCCOCCOCCOCCOCCOCCOC(=O)CCCCCNc1c2c3c4c(c(OC)c(=O)c5c(NCCCCCC(=O)OCCOCCOCCOCCOCCOCCOCCOCCOCCOCCOCCOCCOC)cc(OC)c(c6c(OC)cc(O)c(c1=O)c63)c54)CC(C)=C2 [HC-9d-PEG12] | 32 | 625 | 31,500 M^−1cm^−1
COc1c2c3c4c(c(NCCCS(=O)(=O)O)c(=O)c5c(O)cc(OC)c(c6c(OC)cc(NCS(=O)(=O)O)c(c1=O)c63)c54)C=C(C)C2 [HC-45d] | 21 | 624 | 21,000 M^−1cm^−1
COCCOCCOCCOCCOCCOCCOCCOCCOCCOCCOCCOCCOC(=O)C1CCC(Nc2c3c4c5c(c(OC)c(=O)c6c(O)cc(OC)c(c7c(OC)cc(NC8CCC(C(=O)OCCOCCOCCOCCOCCOCCOCCOCCOCCOCCOCCOCCOC)CC8)c(c2=O)c74)c65)C(C(C)=O)C(C)=C3)CC1 (stereo not drawn) [HB-14c-PEG12] | 38 | 628 | 33,500 M^−1cm^−1
COc1c2c3c4c(c(NC5CCCCC5C(=O)O)c(=O)c5c(NC6CCCCC6C(=O)O)cc(OC)c(c6c(OC)cc(O)c(c1=O)c63)c54)C=C(C)C2C(C)=O (stereo not drawn) [HB-16c] | 28 | 628 | 28,000 M^−1cm^−1
COCCOCCC(=O)N1CCC(CNc2c(NCC3CCN(C(=O)CCOCCOC)CC3)c3c(=O)cc(OC)c4c5c(OC)cc(=O)c6c(O)c(OC)c7c(c(c2C=C(C)C7C(C)=O)c34)c65)CC1 (stereo not drawn) [HB-31a-PEG1] | 32 | 622 | 32,000 M^−1cm^−1
COCCOCCOCCOCCOCCOCCOC(=O)CCCCCNc1c(O)c2c(=O)cc(OC)c3c4c(OC)cc(=O)c5c(NCCCCCC(=O)OCCOCCOCCOCCOCCOCCOC)c(OC)c6c(c(c1C=C(C)C6)c23)c54 [HC-9b-PEG6] | 30 | 622 | 30,500 M^−1cm^−1
COc1c2c3c4c(c(NCCOC(=O)N5CC(=O)NC(=O)C5)c(=O)c5c(O)cc(OC)c(c6c(OC)cc(NCCOC(=O)N7CC(=O)NC(=O)C7)c(c1=O)c63)c54)C=C(C)C2C(C)=O (stereo not drawn) [HB-40d] | 30 | 628 | 31,500 M^−1cm^−1
COc1c(O)c2c(=O)cc(OC)c3c4c(OC)cc(=O)c5c(NC6CCC(C(=O)O)CC6)c(NC6CCC(C(=O)O)CC6)c6c(c(c1C(C(C)=O)C(C)=C6)c23)c54 (stereo not drawn) [HB-14a] | 25 | 625 | 27,000 M^−1cm^−1
COc1c2c3c4c(c(NCCC(=O)O)c(=O)c5c(NCCC(=O)O)cc(OC)c(c6c(OC)cc(O)c(c1=O)c63)c54)C=C(C)C2C(C)=O (stereo not drawn) [HB-10c] | 38 | 622 | 33,000 M^−1cm^−1
COc1c(NC2CCC(C(=O)O)C2)c2c(=O)cc(OC)c3c4c(OC)cc(=O)c5c(O)c(NC6CCC(C(=O)O)C6)c6c(c(c1C(C(C)=O)C(C)=C6)c23)c54 (stereo not drawn) [HB-19b] | 22 | 620 | 25,000 M^−1cm^−1

Reference: patent publication US11439707B2, “Hypocrellin derivative substituted both in a peri-position and in 2-position by amino, preparation method, and application thereof” (priority 2017, dated 2022)
